From patent US12187739B2, “Diaryl macrocycle polymorph” (TURNING POINT THERAPEUTICS, INC., priority 2015, dated 2025)

How the values were obtained:
[1] = system: SET-2 cells (harboring endogenous JAK2 V618F point mutation); experiment: SET-2 cell proliferation assay (CellTiter-Glo); type: cell-based; conditions: Homo sapiens, SET-2 essential thrombocythemia cells, 72 hours incubation, read-out: SET2 cell proli. IC50
Description: Essential thrombocythemia cell line SET-2 cells (harboring endogenous JAK2 V618F point mutation) or T cell lymphoma Karpas-299 cell line (harboring endogenous NPM-ALK fusion gene) were cultured in RPMI medium, supplemented with 10% fetal bovine serum and 100 U/mL of penicillin/streptomycin. 5000 cells were seeded in 384 well white plate for 24 hours before compounds treatment. Cell proliferation was measured using CellTiter-Glo luciferase-based ATP detection assay (Promega) following the manufactures's protocol after 72 hours incubation. IC50 determinations were performed using GraphPad Prism software (GraphPad, Inc., San Diego, CA).

[2] = system: KM 12 cells (harboring endogenous TPM3-TRKA fusion gene); experiment: cells; conditions: Homo sapiens, KM12, 72 h, read-out: KM 12 cell prolif. IC50 (nM)
Description: Colorectal cell lines KM 12 (harboring endogenous TPM3-TRKA fusion gene) cells were cultured in DMEM medium, supplemented with 10% fetal bovine serum and 100 U/mL of penicillin/streptomycin. 5000 cells were seeded in 384 well white plate for 24 hours before compounds treatment. Cell proliferation was measured using CellTiter-Glo luciferase-based ATP detection assay (Promega) following the manufactures's protocol after 72 hours incubation. IC50 determinations were performed using GraphPad Prism software (GraphPad, Inc., San Diego, CA).
5000 cells were seeded in 384 well white plate for 24 hours before compounds treatment. Cell proliferation was measured using CellTiter-Glo luciferase-based ATP detection assay (Promega) following the manufactures's protocol after 72 hours incubation. IC50 determinations were performed using GraphPad Prism software (GraphPad, Inc., San Diego, CA).

[3] = system: Ba/F3-EML4-ALK wild type cell line; experiment: EML4-ALK Ba/F3 stable cell line proliferation assay (CellTiter-Glo); type: cell-based; conditions: Ba/F3 cells with EML4-ALK wild-type (variant 1), 48 hours incubation; read-out: EML4-ALK Ba/F3 cell proli. IC50
Description: The EML4-ALK wild-type gene (variant 1) was synthesized at GenScript and cloned into pCDH-CMV-MCS-EF1-Puro plasmid (System Biosciences, Inc). Ba/F3-EML4-ALK wild type cell line was generated by infecting Ba/F3 cells with lentivirus containing EML4-ALK wide-type. Stable cell lines were selected by puromycin treatment, followed by IL-3 withdrawal. 5000 cells were seeded in 384 well white plate overnight before compound treatment.

In the case of `C[C@H]1CNC(=O)c2cnn3ccc(nc23)N[C@H](C)c2cc(F)ccc2O1` [Compound I, (7S,13R)-11-fluoro-7,13-dimethyl-6,7,13,14-tetrahydro-1,15-ethenopyrazolo[4,3-f][1,4,8,10]benzoxatriazacyclotridecin-4(5H)-one], the IC50 [1] is reported as 242 nM, the IC50 [2] is reported as 0.5 nM and the IC50 [3] is reported as 21.1 nM.
